Where two headings read alike, the source gives them in different places.
How the values were obtained:
GTN-induced migraine = details: cited from earlier work
[1] = intranasal, formulations containing cyclodextrins, rabbits; cited from earlier work
allergic rhinitis = details: intranasal, humans; cited from earlier work
[2] = human, in vivo, inhaled or intranasal
Experimental: In this study, the fraction absorbed nasally was calculated by preventing absorption via the GI tract through the use of charcoal.

[3] = nasal spray, cited from earlier work
[4] = in vivo; cited from earlier work
[5] = cited from earlier work
[6] = rat, in vivo; cited from earlier work

O=[N+]([O-])OCC(CO[N+](=O)[O-])O[N+](=O)[O-] [GTN, glyceryltrinitrate]
subjects with a history of migraine in whom migraine is expected to be induced (GTN-induced migraine; GTN challenge): 75%

CN1C[C@H](C(=O)N[C@]2(C)O[C@@]3(O)[C@@H]4CCCN4C(=O)[C@H](Cc4ccccc4)N3C2=O)C[C@@H]2c3cccc4[nH]cc(c34)C[C@H]21 [dihydroergotamine]
Tmax, powder versus liquid formulations [1]: broadly comparable

O=C(O)c1cc(=O)c2c(OCC(O)COc3cccc4oc(C(=O)O)cc(=O)c34)cccc2o1 [sodium cromoglycate]
effectiveness, powder versus solution formulation (allergic rhinitis): somewhat more effective

CNS(=O)(=O)Cc1ccc2[nH]cc(CCN(C)C)c2c1 [sumatriptan]
time to reversal of GTN-induced excess of theta (more than 15%) after treatment (GTN-induced migraine; studies by others): ≤ 30 min

CN(C)CCc1c[nH]c2ccc(C[C@H]3COC(=O)N3)cc12 [zolmitriptan]
ratio of nasal absorption fraction to total bioavailability (BA) [2]: about 0.75
fraction of nasal absorption ([3]; GI absorption prevented with charcoal): about 30%
total BA [3]: about 40%

calcitonin
absorption, liquid versus powder formulations [4]: comparable

elcatonin
bio-availability in vivo, powder formulation versus liquid [5]: greater bio-availability

salmon calcitonin
Tmax, powder versus liquid formulations [6]: no apparent difference

From US8875704B2, “Nasal administration” (priority 2007, dated 2014)
